The test system of data set [1] is glycerol-induced renal failure model. As to the kind of experiment: renal-protecting effect (glycerol-induced renal failure model). The class given is in vivo. Conditions: male Wistar rats; for suppression of increases of the serum creatinine and of urine-nitrogen: 0.01 - 10 mg/kg i.p., 24 hours after 50% glycerol s.c. (p < 0.05). The procedure:
A renal failure is a state wherein the renal function is lowered and the homeostasis of a body fluid can be no more maintained. It is known that an acute renal failure characteristic of uriniferous tubule disorder is caused by subcutaneous or intramuscular injection of glycerol to rats [Can. J. Physiol.
Male Wistar rats were kept deprived or water for 18 hours, and served for the test. A test compound was intraperitoneally administered to the rats (dosage: 1 mℓ/kg) and the rats were anesthetized with ether and 50% glycerol was subcutaneously administered (dosage: 0.8mℓ/100g) to the rats, pinching the dorsal skin. Twenty four hours after the administration of glycerol, the rats were anesthetized with ether and 5 mℓ of blood were collected from the abdominal aorta. The collected blood was allowed to stand for 30 minutes or longer and then centrifuged at 3,000 rpm for 10 minutes, and the amounts of the serum creatinine and urine-nitrogen (UN) contained in the serum were determined by auto analyzer (Olympus AU510) or measured by a creatinine test Wako (Jaffé method) and UN Test Wako (diacetylmonooxime direct method). Both are manufactured by Wako Pure Chemicals Co.
On the other hand, the left kidneys of the blood-sampled rats were removed and placed in formalin-filled vial bottles, and used as samples for the pathological examination.

A further data set relates to Wistar rats. Kind of data set: diuretic effect. Type of data set: in vivo. Conditions: urine collected for 6 hours; for Increase in K⁺ excretion (%) / Increase in Na⁺excretion (%) / Increase in Urine (%): relative to control; for Na⁺/K⁺: relative value of control (control 1.00). The procedure: Wistar rats (male: 150 - 300 g) were starved for 18 hours prior to the administration of the test compounds. […] Urine was collected for 6 hours after the administration. Urine volume was measured and the electrolytes (Na+ and K+) in the urine were determined with a flame photome[…], Hitachi Ltd., Japan). All parameters are expressed as relative values of control.

Another data set has as its system male dd-strain mice. As to the kind of experiment: acute toxicity test. The class given is in vivo. The method, then: […]. The Minimum lethal dose (MLD) of the compounds was determined by observing whether or not the mice were alive after 7 days of the administration.
The target in a further data set is T1, Adenosine A₁ Receptor (Cavia porcellus, UniProt P47745).
T1 construct: from tissue; host or cells: guinea pig cerebrum membrane preparation
T1 sequence (P47745 1-326): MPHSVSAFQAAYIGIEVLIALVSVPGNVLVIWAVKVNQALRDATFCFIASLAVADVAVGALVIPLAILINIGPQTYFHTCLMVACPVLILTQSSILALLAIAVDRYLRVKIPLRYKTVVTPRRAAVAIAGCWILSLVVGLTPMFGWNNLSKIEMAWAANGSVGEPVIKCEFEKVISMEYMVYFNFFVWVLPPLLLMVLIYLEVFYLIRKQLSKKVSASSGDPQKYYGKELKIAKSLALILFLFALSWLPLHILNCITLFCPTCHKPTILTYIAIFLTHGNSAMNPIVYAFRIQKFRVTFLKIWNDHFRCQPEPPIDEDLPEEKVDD
Kind of data set: Adenosine A1 receptor binding (3H-CHA binding). Details: species or system guinea pig. The procedure:
Cerebrum of a guinea pig was suspended into ice cooled 50 mM tris hydroxymethyl aminomethane hydrochloride (Tris HCl) buffer (pH = 7.7), by using Polytron homogenizer (manufactured by Kinematica Co.). The suspension was centrifuged (50,000 x g, 10 minutes), and the precipitate was resuspended by adding the same volume of 50 mM Tris HCl buffer. The suspension was centrifuged under the same conditions, and the precipitate obtained was suspended once again by adding 10 volumes of 50 mM Tris HCl. The tissue suspension was incubated at 37°C for 30 minutes in the presence of 0.02 units/mg tissue of adenosine deaminase (manufactured by Sigma Co.). The resulting tissue suspension was recentrifuged (50,000 x g, 10 minutes), and 50 mM Tris HCl was added to the precipitate to adjust the concentration of tissue to 10 mg (wet weight)/mℓ.
The mixture was incubated at 25°C for 90 minutes, and the resulting reaction was stopped by rapid vacuum filtration through a glass fiber filter (GF/C manufactured by Whatman Co.) followed by immediately washing three times with 5 mℓ each of ice cold 50 mM Tris HCl buffer. […] Its radioactivity was then determined by a scintillation counter (manufactured by Packard Instrument Co.).
The inhibition rate of the test compounds against the binding of A₁ […] (³H-CHA binding) was calculated from the following equation: [formula]
• 1. […] The inhibition constant (Ki value) shown in the table was calculated from Cheng-Prusoff's equation.

The target in a further data set is T2, A₂ receptor (Rattus norvegicus, UniProt P30543).
T2 construct: A precipitate was prepared from rat corpus striatum; from tissue; host or cells: rat corpus striatum membrane preparation
As to the kind of experiment: Adenosine A2 receptor binding (3H-NECA binding). Particulars: for inhibition at 10 µM / inhibition at 100 µM: read-out: A₂ Receptor Inhibition (%). The procedure: A precipitate was prepared from rat corpus striatum in a similar manner as in 1) above. The precipitate was suspended by adding a 50 mM Tris HCl buffer containing 10 mM magnesium chloride and 0.02 unit/mg (tissue) of adenosine deaminase (manufactured by Sigma Co.) to adjust the concentration of tissue to 5 mg (wet weight)/mℓ.
The mixture was incubated at 25°C within 120 minutes. The resulting mixture was treated in the same manner as in 1) above to determine its radioactivity.
The inhibition rate of the test compound against the binding of A₂ receptor (³H-NECA binding) was calculated from the following equation: [formula]

[2] abbreviates: amount of the administration 6.25 mg.kg, oral.

These results are taken from EP0415456A2, “Xanthine compounds” (priority 1989, dated 1991).

Where two headings read alike, the source gives them in different places.

T2 sequence (P30543 whole entry): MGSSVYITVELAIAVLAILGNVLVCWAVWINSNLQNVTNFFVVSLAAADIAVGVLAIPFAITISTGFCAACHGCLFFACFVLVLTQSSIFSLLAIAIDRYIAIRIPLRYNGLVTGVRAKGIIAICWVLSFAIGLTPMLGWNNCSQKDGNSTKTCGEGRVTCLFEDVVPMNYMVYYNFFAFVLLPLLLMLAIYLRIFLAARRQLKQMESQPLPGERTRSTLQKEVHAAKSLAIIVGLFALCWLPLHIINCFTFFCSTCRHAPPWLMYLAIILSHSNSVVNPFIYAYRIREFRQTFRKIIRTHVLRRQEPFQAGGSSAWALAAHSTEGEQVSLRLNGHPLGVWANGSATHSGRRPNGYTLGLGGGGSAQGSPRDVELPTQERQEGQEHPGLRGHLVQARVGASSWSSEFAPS

“8-[(1R*,2R*,5S*)-Bicyclo[2.2.1]heptan-2-yl]methyl-1,3-dipropylxanthine [Compound 16]”: the “suppression of increases of the serum creatinine and of urine-nitrogen” value in data set [1] was “significantly suppressed”. The “pathological examination of removed kidneys: state of kidneys” value in data set [1] (i.p., left kidney removed 24 hours after 50% glycerol s.c.) is “significantly improved”. In the data set with Wistar rats (25 mg/kg oral), the “Increase in K⁺ excretion (%)” value is given as 38%, the “Increase in Na⁺excretion (%)” value is 191%, the “Increase in Urine (%)” value was determined as 141% and the “Na⁺/K⁺” value came to 2.12.
Turning to `CCCn1c(=O)c2[nH]c([C@@H]3C[C@@H]4C=C[C@@H]3C4)nc2n(CCC)c1=O` (relative stereo) [Compound 2, 8-[(1R*,4S*,5R*)-2-bicyclo[2.2.1]hepten-5-yl]-1,3-dipropylxanthine], the “Minimum lethal dose (MLD)” value in the data set with male dd-strain mice (mouse, in vivo, 10080 min) is “more than 300 mg/kg”. In the data set on Wistar rats (25 mg/kg oral), the “Increase in K⁺ excretion (%)” value is listed as 67%, the “Increase in Na⁺excretion (%)” value was 109%, the “Increase in Urine (%)” value is listed as 87% and the “Na⁺/K⁺” value stood at 1.25.
With `CCCn1c(=O)c2[nH]c([C@H]3CC[C@H]4CCC[C@H]43)nc2n(CCC)c1=O` (relative stereo) [Compound 6, 8-[(1R*,2S*,5R*)-bicyclo[3.3.0]oxtan-2-yl]-1,3-dipropylxanthine], at Adenosine A₁ Receptor (A₂ Ki (rat corpus striatum) / A₁ Ki (guinea pig cerebrum)), the “Ratio of Ki Values [A₂/A₁]” value was determined as 112. Moreover, the Ki – broadly, the equilibrium dissociation constant of an inhibitor or competing ligand from its target – at Adenosine A₁ Receptor (calculated from Cheng-Prusoff's equation, ³H-CHA, guinea pig cerebrum) is 5 nM. Further, at Adenosine A₁ Receptor (concentration of tested compound 10⁻⁴ M, ³H-CHA 1.1 nM, guinea pig cerebrum), the inhibition (in general, the relative decrease from the control value, in per cent) at 100 µM was 101%. At Adenosine A₁ Receptor (concentration of tested compound 10⁻⁵ M, ³H-CHA 1.1 nM, guinea pig cerebrum), the inhibition at 10 µM was 100%. In addition, at A₂ receptor, the inhibition at 10 µM turned out to be 70% and the inhibition at 100 µM amounted to 85%. Moreover, on A₂ receptor (³H-NECA with CPA, rat corpus striatum, read-out: A₂ Receptor Ki), the Ki is 560 nM. In the data set with Wistar rats (setting [2]), the “Increase in K⁺ excretion (%)” value is 87%, the “Increase in Na⁺excretion (%)” value is on record as 252%, the “Increase in Urine (%)” value turned out to be 330% and the “Na⁺/K⁺” value is 1.88.
`CCCn1c(=O)c2c(nc([C@@H]3CC[C@H]4CCC[C@H]43)n2C)n(CCC)c1=O` (relative stereo) [Compound 18, 8-[(1R*,2R*,5R*)-Bicyclo[3.3.0]octan-2-yl]-1,3-dipropyl-7-methylxanthine]: in the data set with male dd-strain mice (mouse, in vivo, 10080 min), the “Minimum lethal dose (MLD)” value was “more than 300 mg/kg”.
Regarding `CCCn1c(=O)c2[nH]c([C@@H]3CC[C@H]4CCC[C@H]43)nc2n(CCC)c1=S` (relative stereo) [Compound 24, 8-[(1R*,2R*,5R*)-Bicyclo[3.3.0]octan-2-yl]-1,3-dipropyl-2-thioxanthine], the “Minimum lethal dose (MLD)” value in the data set on male dd-strain mice (300 mg/kg orally administered, male dd-strain mice, observed 7 days after administration) is reported as “more than 300 mg/kg”. In addition, in the data set with Wistar rats (25 mg/kg oral), the “Increase in K⁺ excretion (%)” value stood at 61%, the “Increase in Na⁺excretion (%)” value is on record as 125%, the “Increase in Urine (%)” value turned out to be 112% and the “Na⁺/K⁺” value is on record as 1.40.
For the compound `Cn1c(=O)c2[nH]cnc2n(C)c1=O` [Aminophylline, reference compound], in data set [1], the “suppression of increases of the serum creatinine and of urine-nitrogen” value is recorded as “weak effect”. Also, in the data set with Wistar rats (25 mg/kg oral), the “Increase in K⁺ excretion (%)” value came out at 17%, the “Increase in Na⁺excretion (%)” value is on record as 89%, the “Increase in Urine (%)” value stood at 34% and the “Na⁺/K⁺” value is recorded as 1.62.
Take `Nc1nc2ccc(Cl)cc2c2nc(-c3ccco3)nn12` [CGS 15943, reference compound]: at A₂ receptor, the Ki was found to be 0.73 nM, the inhibition at 10 µM was 99% and the inhibition at 100 µM turned out to be 97%.
